The text below walks through data of patent publication US20110183978A1, “Phenylpyri(mi)dinylazoles” (Bayer CropScience AG, priority 2009, published 2011).

What is called chromatographic logP is a lipophilicity value derived from retention on a column.

Data set [1] relates to Botrytis cinerea. The data set is described as follows: Example B: in vivo test on Botrytis cinerea (grey mould on cucumbers). As to conditions: cucumber plants sprayed 24 hours before inoculation, scored after 5-7 days, read-out: % Wirkungsgrad. The gist of the method: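 Cucumber plants (Vert petit de Paris) sprayed at cotyledon stage Z11 with aqueous suspension of compound (acetone/Tween/DMSO), then inoculated with spores from 15-day-old culture in gelatine/fructose nutrient solution. Kept 5-7 days at 15-11° C, then scored against untreated sprayed controls.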

Data set [2] concerns Fusarium graminearum. Kind of data set: microbe, parasite or virus in culture. Format: cell-based.
The next data set has as its system Sphaerotheca fuliginea. The data set is described as follows: Example L: in vivo test on Sphaerotheca fuliginea (powdery mildew on cucumber/protective). As to conditions: Podosphaera fuliginea, 168 h, cucumber, protective, assessment 7 days after inoculation, read-out: % Wirkungsgrad. The gist of the method: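 Young cucumber plants sprayed at stated dosage with compound in DMF/alkylaryl polyglycol ether emulsifier diluted in water; inoculated with S. fuliginea spores one day later. Kept in greenhouse at 70% relative humidity, 23° C; protective activity assessed 7 days after inoculation.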

For a further data set, the system named is Plasmopara viticola. Kind of data set: Example N: in vivo test on Plasmopara viticola (downy mildew, vine/protective). As to conditions: 144 h, vine, protective, assessment 6 days after inoculation, read-out: % Wirkungsgrad. The gist of the method: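 Protective test: young vine plants were sprayed with active substance diluted in water from a solvent/alkylaryl polyglycol ether emulsifier concentrate at the stated dosage, then inoculated with P. viticola. Plants were moistened and kept 1 day in an incubation cabin, and assessed 6 days after inoculation.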

A further data set relates to Venturia inaequalis. Kind of data set: Example O: in vivo test on Venturia inaequalis (apple scab/protective). Conditions: 240 h, protective, assessment 10 days after inoculation, read-out: % Wirkungsgrad. The gist of the method: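 Protective test: active substance mixed with solvent and alkylaryl polyglycol ether emulsifier, diluted with water, and sprayed on young plants at the stated dosage before Venturia inaequalis inoculation. Scab assessed 10 days after inoculation.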

The subject of data set [3] is Botrytis cinerea. Kind of data set: Example P: in vivo test on Botrytis cinerea (gray mould on bean/protective). Conditions: 48 h, bean, protective, 250 ppm active substance, assessed 2 days after inoculation, read-out: % Wirkungsgrad (activity level). The gist of the method: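 Protective test: young bean plants sprayed with the active substance preparation (emulsifier-based concentrate diluted in water) at the stated dosage. Once dry, each leaf received 2 agar pieces bearing Botrytis cinerea. Infection blotch size assessed 2 days after inoculation.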

The subject of another data set is Septoria tritici. The data set is described as follows: Example R: in vivo test on Septoria tritici (leaf blotch in wheat/protective). As to conditions: Zymoseptoria tritici, 504 h, wheat, protective, 1000 ppm active substance, assessed 21 days after inoculation, read-out: % Wirkungsgrad (activity level). The gist of the method: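 Protective test: young wheat plants sprayed with compound in N,N-dimethylacetamide/alkylaryl polyglycol ether emulsifier diluted in water, dried, then inoculated with Septoria tritici spore suspension. Disease assessed 21 days after inoculation.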

In data set [4] the test system is Fusarium nivale (var. majus). Kind of data set: whole plant or invertebrate. Format: in vivo. As to conditions: Microdochium nivale, in Triticum aestivum, 120 h, read-out: % Wirkungsgrad (activity level).
For data set [5], the system named is Fusarium graminearum. Kind of data set: whole plant or invertebrate. Format: in vivo. Conditions: in Hordeum vulgare, 120 h, read-out: % Wirkungsgrad (activity level).
The next data set deals with Pyricularia oryzae. Kind of data set: whole plant or invertebrate. The format is in vivo. As to conditions: 120 h, read-out: % Activity level.
The subject of another data set is Cochliobolus miyabeanus. The data set is described as follows: Example X: in vivo test on Cochliobolus miyabeanus (brown spot disease, rice/protective). As to conditions: Bipolaris oryzae, 96 h, read-out: % Activity level.
A short description of another data set: physchem. As to conditions: LogPA (logP of the stated pure compound or, in a mixture, of the main isomer, 1-substituted 3-aryl-1H-pyrazole).
A further data set has as its system Pyrenophora teres. The data set is described as follows: Example E: in vivo test on Pyrenophora teres (barley net blotch disease). As to conditions: Pyrenophora teres, 288 h, barley plants sprayed 24 hours before inoculation, scored after 12 days, read-out: % Wirkungsgrad. The procedure:
In Vivo Test on Pyrenophora Teres (Barley Net Blotch Disease) An aqueous suspension of the active substance was prepared by homogenization of a mixture of acetone/Tween/dimethyl sulphoxide and subsequent dilution with water to the desired concentration. Barley plants (variety: Plaisant) are sown in cultivation dishes on a peat-pozzolanic earth substrate (50/50) at 12° C. and sprayed at the first-leaf stage (10 cm size) with the aqueous suspension described above. As a control, plants are sprayed with an aqueous solution with no active substance. After 24 hours the plants are inoculated by spraying with an aqueous suspension of Pyrenophora teres spores (12,000 spores per ml). The spores are derived from a 12 day-old culture. […] After 12 days they are scored in comparison with the control plants.

[6] abbreviates: 72 h, read-out: % Inhibition des Pilzwachstums bei 50 μM.
[7] abbreviates: 168 h, read-out: % Inhibition der DON/AcDON produktion bei 50 μM.

Read-outs that look alike come from different tables or passages of the source.

For the compound `CC(C)C(=O)Nc1cc(-c2cn(C(C)C)nc2-c2ccc(F)cc2)ccn1` [Compound 84], the pest or weed control at 500 ppm in the data set with Botrytis cinerea [1] and in the data set on Sphaerotheca fuliginea was 100% in each case. Besides, the values for the inhibition at 50 µM with Fusarium graminearum [2] (setting [6]) and in the data set on Fusarium graminearum [2] (setting [7]) were 92% and 99%, respectively. For the same compound, the pest or weed control at 100 ppm in the data set on Plasmopara viticola turned out to be 98%; with Venturia inaequalis it was 100%. Further, the pest or weed control at 250 ppm in the data set on Botrytis cinerea [3] came out at 99%; with Pyricularia oryzae it was 85%; in the data set with Cochliobolus miyabeanus, 93%. For the same compound, the pest or weed control at 1000 ppm (in the data set on Septoria tritici; in data set [4]; in the data set with Fusarium graminearum [5]) was 100% throughout. In “physchem”, the chromatographic logP came to 2.5.

Consider `CC(C)Cn1cc(-c2ccncc2)c(-c2ccc(F)cc2)n1` [Compound 1], for which the pest or weed control at 500 ppm in the data set on Botrytis cinerea [1] worked out at 100%; in the data set on Pyrenophora teres, 96%. Moreover, the pest or weed control at 100 ppm in the data set on Plasmopara viticola came out at 100%; with Venturia inaequalis, 99%. For the same compound, the pest or weed control at 250 ppm in the data set on Botrytis cinerea [3] turned out to be 99%; in the data set with Pyricularia oryzae, 80%; in the data set with Cochliobolus miyabeanus, 85%. Further, the pest or weed control at 1000 ppm amounted to 100% in the data set with Septoria tritici, 92% in [4] and 100% in the data set on Fusarium graminearum [5]. The chromatographic logP in the data set “physchem” was 1.63.

With `CC(C)n1cc(-c2ccnc(NC(=O)C3CC3)c2)c(-c2ccc(F)cc2)n1` [Compound 86], the figures for the pest or weed control at 500 ppm in the data set with Botrytis cinerea [1], with Pyrenophora teres and with Sphaerotheca fuliginea were 100%, 81% and 100%, respectively. In addition, the inhibition at 50 µM was 94% with Fusarium graminearum [2] (setting [6]) and 98% with Fusarium graminearum [2] (setting [7]). Moreover, the pest or weed control at 100 ppm with Plasmopara viticola amounted to 84%; in the data set on Venturia inaequalis, 96%. Besides, the pest or weed control at 250 ppm came to 100% with Botrytis cinerea [3], 93% in the data set on Pyricularia oryzae and 80% in the data set with Cochliobolus miyabeanus. For the same compound, the pest or weed control at 1000 ppm (with Septoria tritici; in data set [4]; in the data set with Fusarium graminearum [5]) was 100% in each case. In “physchem”, the chromatographic logP is 2.07.

Consider `CCC(=O)Nc1cc(-c2cn(C(C)C)nc2-c2ccc(F)cc2)ccn1` [Compound 85], for which the pest or weed control at 500 ppm with Botrytis cinerea [1] was determined as 100%; in the data set on Pyrenophora teres it was 75%; in the data set with Sphaerotheca fuliginea, 100%. For the same compound, the figures for the inhibition at 50 µM in the data set on Fusarium graminearum [2] (setting [6]) and with Fusarium graminearum [2] (setting [7]) were 100% and 99%, respectively. The results for the pest or weed control at 100 ppm in the data set with Plasmopara viticola and in the data set with Venturia inaequalis were 94% and 88%, respectively. Further, the pest or weed control at 250 ppm in the data set with Botrytis cinerea [3] worked out at 100%; in the data set on Pyricularia oryzae it was 80%; with Cochliobolus miyabeanus it was 90%. Moreover, the pest or weed control at 1000 ppm (in the data set on Septoria tritici; in data set [4]; in the data set on Fusarium graminearum [5]) was 100% in each case. Besides, in the data set “physchem”, the chromatographic logP turned out to be 2.15.
